The source made the active and inactive calls.
What was measured:
[1] = target: ADP-ribosylation factor GTPase-activating protein 1 (Rattus norvegicus, UniProt Q62848); assay: Fluorescence polarization-based biochemical high throughput dose response screening assay to identify inhibitors of ADP-ribosylation factor GTPase activating protein 1 (ARFGAP1).; format: functional
[2] = target: T1, Estrogen receptor (Homo sapiens, UniProt P03372); assay: ERα coactivator recruitment enhancers – biochemical, TR-FRET, ERα LBD, dose response (AID 737)
T1 sequence (P03372 whole entry): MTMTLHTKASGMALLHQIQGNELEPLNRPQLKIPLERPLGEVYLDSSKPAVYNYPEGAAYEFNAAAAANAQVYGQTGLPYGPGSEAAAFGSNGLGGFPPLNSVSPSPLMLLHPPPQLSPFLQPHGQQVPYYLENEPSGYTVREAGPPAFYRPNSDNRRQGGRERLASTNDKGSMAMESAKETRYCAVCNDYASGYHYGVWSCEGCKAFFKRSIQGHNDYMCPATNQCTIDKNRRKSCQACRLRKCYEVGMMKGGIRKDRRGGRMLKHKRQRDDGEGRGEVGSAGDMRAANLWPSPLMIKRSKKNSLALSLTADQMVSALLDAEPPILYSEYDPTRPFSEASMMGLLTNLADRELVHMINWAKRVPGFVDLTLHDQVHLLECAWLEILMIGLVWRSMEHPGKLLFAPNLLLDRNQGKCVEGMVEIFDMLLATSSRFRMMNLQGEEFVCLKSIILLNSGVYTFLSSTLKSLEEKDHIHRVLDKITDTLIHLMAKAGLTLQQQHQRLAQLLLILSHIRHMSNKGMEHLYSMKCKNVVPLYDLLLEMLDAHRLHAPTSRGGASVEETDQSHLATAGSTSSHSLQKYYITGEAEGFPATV

[3] = target: Prothrombin (Bos taurus, UniProt P00735); assay: thrombin protease inhibitors – biochemical, fluorescence polarization, uHTS hits, dose response (AID 602369); format: functional
[4] = target: 72 kDa type IV collagenase (Homo sapiens, UniProt P08253); assay: Dose Response validation of uHTS RPN11 inhibitor hits using a MMP-2 Fluorescence assay.; format: functional
Chain of 72 kDa type IV collagenase (P08253 whole entry): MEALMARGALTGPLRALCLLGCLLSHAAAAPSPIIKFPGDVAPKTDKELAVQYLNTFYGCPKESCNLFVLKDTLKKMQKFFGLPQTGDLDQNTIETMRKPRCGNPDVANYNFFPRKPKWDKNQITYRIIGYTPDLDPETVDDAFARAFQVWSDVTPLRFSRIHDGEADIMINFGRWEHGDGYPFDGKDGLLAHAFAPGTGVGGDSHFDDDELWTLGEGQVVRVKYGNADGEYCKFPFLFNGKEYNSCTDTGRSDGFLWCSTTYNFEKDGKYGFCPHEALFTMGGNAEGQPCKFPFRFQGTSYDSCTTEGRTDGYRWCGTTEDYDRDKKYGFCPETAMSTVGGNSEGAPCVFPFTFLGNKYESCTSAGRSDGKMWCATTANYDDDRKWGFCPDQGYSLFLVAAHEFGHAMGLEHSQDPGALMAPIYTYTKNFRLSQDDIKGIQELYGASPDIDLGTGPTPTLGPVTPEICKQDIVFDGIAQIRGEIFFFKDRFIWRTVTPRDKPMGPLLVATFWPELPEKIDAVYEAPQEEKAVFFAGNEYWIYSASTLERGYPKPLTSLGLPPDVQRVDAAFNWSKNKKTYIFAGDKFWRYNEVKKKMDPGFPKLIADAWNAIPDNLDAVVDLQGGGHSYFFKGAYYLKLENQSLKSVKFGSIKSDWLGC

[5] = target: T2, Microphthalmia-associated transcription factor (Homo sapiens, UniProt O75030); assay: reducers of TRPM1 reporter luminescence, concentration series – cell-based, SK-MEL-5, cherry-picked, set 3, MITF inhibitor project, dose response (AID 493073); format: functional;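 also: SK-MEL-5 melanoma cells with luciferase driven by the MITF target TRPM1 promoter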
T2 sequence (O75030 whole entry): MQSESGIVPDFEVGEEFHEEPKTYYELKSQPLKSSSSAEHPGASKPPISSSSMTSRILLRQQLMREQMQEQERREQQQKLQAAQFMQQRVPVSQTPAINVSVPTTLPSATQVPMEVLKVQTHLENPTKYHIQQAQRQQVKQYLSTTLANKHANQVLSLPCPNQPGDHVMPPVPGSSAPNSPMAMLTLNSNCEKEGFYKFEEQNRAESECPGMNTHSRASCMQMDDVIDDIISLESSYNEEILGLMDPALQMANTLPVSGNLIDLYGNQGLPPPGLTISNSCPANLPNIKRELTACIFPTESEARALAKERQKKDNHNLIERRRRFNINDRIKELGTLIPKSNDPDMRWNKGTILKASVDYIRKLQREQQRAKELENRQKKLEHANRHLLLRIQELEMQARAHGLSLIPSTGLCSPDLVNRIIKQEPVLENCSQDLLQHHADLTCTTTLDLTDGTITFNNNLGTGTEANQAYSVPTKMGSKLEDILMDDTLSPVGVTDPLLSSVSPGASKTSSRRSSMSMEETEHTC

[6] = mitochondrial function rescue without frataxin homolog – Friedreich's ataxia, plus single-dose screen, dose response (AID 1465); format: functional;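 also: yeast depleted of Yfh1p frataxin homolog grown on glycerol needing respiration; WST-1 tetrazolium dye reduction as measure of cellular dehydrogenase metabolic activity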
[7] = Luminescence Cell-Based Dose Response HTS to Identify Inhibitors of 5'UTR Stem-Loop Driven Prion Protein mRNA Translation in H4 Neuroglioblastoma Cells. [Related pubchem assays: 1827 (Project Summary), 1813 (Primary HTS)]; format: functional
[8] = target: 26S proteasome non-ATPase regulatory subunit 14 (Homo sapiens, UniProt O00487); assay: inhibition of proteasome subunit RPN11 – biochemical, fluorescence polarization, uHTS hits, confirmation (AID 602368); format: functional
Chain of 26S proteasome non-ATPase regulatory subunit 14 (O00487 whole entry): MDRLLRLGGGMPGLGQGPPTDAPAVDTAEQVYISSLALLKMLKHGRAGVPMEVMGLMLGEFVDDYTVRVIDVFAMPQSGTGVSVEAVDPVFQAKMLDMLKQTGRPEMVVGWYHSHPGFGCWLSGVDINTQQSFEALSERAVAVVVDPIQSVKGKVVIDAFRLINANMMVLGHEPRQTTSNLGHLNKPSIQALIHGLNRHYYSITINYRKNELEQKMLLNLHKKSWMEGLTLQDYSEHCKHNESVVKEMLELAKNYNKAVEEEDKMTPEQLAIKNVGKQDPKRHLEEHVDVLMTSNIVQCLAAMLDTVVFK

[9] = alpha-synuclein stem-loop luciferase translation blockers – H4 neuroglioma cells, luminescence, confirmation (AID 1988); format: functional, cell-based
[10] = luciferase reporter signal suppression in cells – H4 neuroglioma cells, luminescence, dose response (AID 1990); format: functional, cell-based
[11] = viability loss of HPDE-C7K cells – cell-based, fluorescence, HTS, primary screen (AID 431); format: functional; settings: Homo sapiens
[12] = tested on: HeLa; assay: Cytotoxicity counterscreen assay for transcriptional activators of heat shock protein 70 (Hsp70). [Related pubchem assays: 1203, 1252 ]; format: functional; settings: Homo sapiens;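 also: cells exposed to compound for 16 hours before readout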
[13] = target: T3, Heat shock factor protein 1 (Mus musculus, UniProt P38532); assay: enhancement of HSF1-driven luciferase signal – cell-based, NIH3T3, luminescence, dose retest, confirmation (AID 435004); format: functional;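 also: stress induced by proteasome inhibitor MG132 added 30 min after compound; luciferase reporter driven by HSF1 response element in NIH3T3 cells; actives raise luminescence as potentiators of the MG132 stress response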
T3 sequence (P38532 whole entry): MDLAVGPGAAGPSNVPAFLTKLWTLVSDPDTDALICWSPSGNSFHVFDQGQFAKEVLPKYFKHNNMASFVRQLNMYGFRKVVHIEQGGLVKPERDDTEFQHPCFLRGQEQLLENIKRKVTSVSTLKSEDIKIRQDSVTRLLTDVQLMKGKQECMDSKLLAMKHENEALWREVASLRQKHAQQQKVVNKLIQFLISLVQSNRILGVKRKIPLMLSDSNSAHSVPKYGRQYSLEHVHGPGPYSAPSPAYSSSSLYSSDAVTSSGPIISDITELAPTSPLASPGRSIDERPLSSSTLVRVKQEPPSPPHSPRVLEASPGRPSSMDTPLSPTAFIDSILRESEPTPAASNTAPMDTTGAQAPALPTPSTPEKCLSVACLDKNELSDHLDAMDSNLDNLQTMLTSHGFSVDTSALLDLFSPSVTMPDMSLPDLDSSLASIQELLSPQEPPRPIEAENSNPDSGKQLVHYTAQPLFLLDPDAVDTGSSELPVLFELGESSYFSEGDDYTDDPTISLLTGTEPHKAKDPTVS

[14] = target: Serine/threonine-protein phosphatase (Candida dubliniensis (strain CD36 / CBS 7987 / NCPF 3949 / NRRLY-17841) (Yeast), UniProt B9W6M3); assay: blockers of CaCl2-induced CDRE-lacZ signaling – S. cerevisiae, luminescence, secondary, dose response (AID 2388); format: functional, cell-based;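 also: yeast reporter cells carrying a calcineurin-responsive lacZ construct stimulated with calcium chloride; luminescent beta-galactosidase reporter signal in whole cells rather than isolated phosphatase activity; potency for inhibition where a drop in reporter signal means calcineurin blockade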
Chain of Serine/threonine-protein phosphatase (B9W6M3 whole entry): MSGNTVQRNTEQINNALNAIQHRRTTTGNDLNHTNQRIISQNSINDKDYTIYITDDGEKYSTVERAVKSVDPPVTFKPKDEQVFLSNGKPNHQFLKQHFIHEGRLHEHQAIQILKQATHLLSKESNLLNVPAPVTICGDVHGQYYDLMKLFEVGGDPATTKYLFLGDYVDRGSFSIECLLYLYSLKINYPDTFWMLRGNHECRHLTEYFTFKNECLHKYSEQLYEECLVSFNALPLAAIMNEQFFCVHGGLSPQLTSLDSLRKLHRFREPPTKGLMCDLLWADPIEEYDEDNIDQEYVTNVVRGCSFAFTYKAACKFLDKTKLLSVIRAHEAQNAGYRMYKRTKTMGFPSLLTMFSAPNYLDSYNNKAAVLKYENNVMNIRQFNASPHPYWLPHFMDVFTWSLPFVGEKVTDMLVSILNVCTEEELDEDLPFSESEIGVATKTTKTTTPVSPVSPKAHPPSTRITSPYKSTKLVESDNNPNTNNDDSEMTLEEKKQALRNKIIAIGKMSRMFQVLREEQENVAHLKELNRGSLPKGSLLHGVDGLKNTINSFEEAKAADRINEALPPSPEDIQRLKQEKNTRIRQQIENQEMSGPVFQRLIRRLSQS

[15] = HPDE-C7 pancreatic duct cell viability loss – fluorescence, HTS (AID 430); format: functional, cell-based; settings: Homo sapiens
[16] = target: ATP-dependent molecular chaperone HSP82 (Candida albicans (strain WO-1) (Yeast), UniProt C4YTQ8); assay: steroid-induced GRE reporter decrease in yeast – S. cerevisiae, luminescence, Hsp90 inhibitor project, dose response (AID 2400); format: functional, cell-based;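 also: beta-galactosidase luminescence from glucocorticoid response element reporter as proxy for Hsp90 function; inhibitor potency where signal loss means Hsp90 inhibition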
Chain of ATP-dependent molecular chaperone HSP82 (C4YTQ8 whole entry): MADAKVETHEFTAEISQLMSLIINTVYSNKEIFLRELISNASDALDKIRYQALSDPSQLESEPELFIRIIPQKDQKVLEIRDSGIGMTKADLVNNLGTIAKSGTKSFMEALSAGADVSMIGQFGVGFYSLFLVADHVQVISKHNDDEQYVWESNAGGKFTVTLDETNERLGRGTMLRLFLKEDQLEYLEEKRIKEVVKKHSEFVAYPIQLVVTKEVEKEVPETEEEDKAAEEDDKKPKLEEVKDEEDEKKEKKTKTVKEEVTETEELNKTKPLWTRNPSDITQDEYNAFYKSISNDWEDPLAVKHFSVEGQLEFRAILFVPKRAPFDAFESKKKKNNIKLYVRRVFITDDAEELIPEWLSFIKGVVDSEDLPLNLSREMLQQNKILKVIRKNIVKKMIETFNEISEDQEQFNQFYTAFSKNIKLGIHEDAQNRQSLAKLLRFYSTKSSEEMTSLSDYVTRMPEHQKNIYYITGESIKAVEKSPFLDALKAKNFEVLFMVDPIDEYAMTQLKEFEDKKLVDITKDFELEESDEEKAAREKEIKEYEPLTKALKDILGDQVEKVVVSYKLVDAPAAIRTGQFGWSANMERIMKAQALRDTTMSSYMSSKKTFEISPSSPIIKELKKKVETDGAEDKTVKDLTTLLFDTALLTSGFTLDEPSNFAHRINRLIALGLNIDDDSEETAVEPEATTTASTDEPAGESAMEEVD

[17] = fluconazole-exposed Candida albicans growth modulators – fluorescence, retest, confirmation (AID 2467); format: functional, cell-based
[18] = target: Induced myeloid leukemia cell differentiation protein Mcl-1 (Homo sapiens, UniProt Q07820); format: functional
Chain of Induced myeloid leukemia cell differentiation protein Mcl-1 (Q07820 whole entry): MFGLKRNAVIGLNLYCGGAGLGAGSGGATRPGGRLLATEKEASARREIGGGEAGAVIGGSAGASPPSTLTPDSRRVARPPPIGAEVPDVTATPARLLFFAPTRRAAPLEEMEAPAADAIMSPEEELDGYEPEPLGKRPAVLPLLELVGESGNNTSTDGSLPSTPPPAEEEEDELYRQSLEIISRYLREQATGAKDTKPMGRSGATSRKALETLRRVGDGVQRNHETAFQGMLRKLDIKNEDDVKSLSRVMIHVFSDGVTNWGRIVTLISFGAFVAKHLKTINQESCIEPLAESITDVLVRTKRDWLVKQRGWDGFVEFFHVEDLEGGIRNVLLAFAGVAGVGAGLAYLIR

[19] = NIH-3T3 fibroblast cytotoxicity, dose response, cytotoxicity control, cell-based, fluorescence, Alamar Blue, secondary assay (AID 2327); format: functional;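 also: NIH-3T3 mouse fibroblasts cultured with fluconazole at 8 µg/mL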
[20] = target: Sphingosine 1-phosphate receptor 1 (Homo sapiens, UniProt P21453); format: functional;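 also: Tango beta-arrestin reporter U2OS cells stimulated with S1P near its EC80; inhibitor potency meaning antagonism of receptor activation by the natural agonist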
Chain of Sphingosine 1-phosphate receptor 1 (P21453 whole entry): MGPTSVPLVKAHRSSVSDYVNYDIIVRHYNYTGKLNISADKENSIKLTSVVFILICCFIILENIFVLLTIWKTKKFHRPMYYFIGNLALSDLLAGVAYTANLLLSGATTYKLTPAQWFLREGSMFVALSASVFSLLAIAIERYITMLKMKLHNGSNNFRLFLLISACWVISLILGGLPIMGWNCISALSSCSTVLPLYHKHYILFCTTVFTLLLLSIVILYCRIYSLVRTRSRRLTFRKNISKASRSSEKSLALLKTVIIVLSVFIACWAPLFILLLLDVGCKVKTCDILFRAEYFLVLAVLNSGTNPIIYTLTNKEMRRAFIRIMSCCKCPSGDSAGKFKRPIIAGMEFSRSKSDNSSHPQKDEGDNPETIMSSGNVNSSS

[21] = non-specific 3'UTR reporter inhibition in Clone20-Shn3RL – cell-based, Renilla luciferase, cherry-picked, counter-screen for Shn3 inhibitor project, dose response (AID 624133); format: functional
[22] = target: T4, Protein RecA (Mycobacterium tuberculosis, UniProt P9WHJ3); assay: Fluorescence Cell-Free Homogeneous Dose Retest to Identify Inhibitors of RecA-Intein Splicing Activity. [Related pubchem assays (depositor defined):AID2097, AID2223, AID489010, AID492950]; format: functional
T4 sequence (P9WHJ3 whole entry): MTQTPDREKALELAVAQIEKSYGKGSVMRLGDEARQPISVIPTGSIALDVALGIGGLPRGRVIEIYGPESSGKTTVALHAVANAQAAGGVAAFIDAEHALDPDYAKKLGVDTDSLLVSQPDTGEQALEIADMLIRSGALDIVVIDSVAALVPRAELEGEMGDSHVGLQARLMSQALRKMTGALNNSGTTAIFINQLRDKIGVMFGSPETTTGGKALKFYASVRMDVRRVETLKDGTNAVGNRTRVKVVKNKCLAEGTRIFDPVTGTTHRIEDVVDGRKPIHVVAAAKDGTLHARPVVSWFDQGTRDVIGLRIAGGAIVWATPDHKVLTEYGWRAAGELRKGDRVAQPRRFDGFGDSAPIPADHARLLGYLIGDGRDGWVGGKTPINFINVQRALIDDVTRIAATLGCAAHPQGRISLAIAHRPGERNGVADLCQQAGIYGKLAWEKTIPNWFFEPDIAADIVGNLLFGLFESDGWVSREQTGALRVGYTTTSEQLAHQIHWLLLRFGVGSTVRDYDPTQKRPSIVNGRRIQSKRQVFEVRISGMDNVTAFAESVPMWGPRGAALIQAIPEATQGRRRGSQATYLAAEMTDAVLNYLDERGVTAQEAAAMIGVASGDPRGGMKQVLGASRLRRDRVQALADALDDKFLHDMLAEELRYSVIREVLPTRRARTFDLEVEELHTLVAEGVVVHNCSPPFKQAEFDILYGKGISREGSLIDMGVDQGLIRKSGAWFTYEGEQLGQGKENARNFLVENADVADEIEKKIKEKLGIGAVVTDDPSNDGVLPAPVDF

[23] = target: T5, Sphingosine 1-phosphate receptor 4 (Homo sapiens, UniProt O95977); assay: Fluorescence dose response cell-based high throughput screening assay for antagonists of the Sphingosine 1-Phosphate Receptor 4 (S1P4). [Related pubchem assays: 1524 (Confirmation in triplicates.), 1510 (Primary screen.)]; format: functional
T5 sequence (O95977 whole entry): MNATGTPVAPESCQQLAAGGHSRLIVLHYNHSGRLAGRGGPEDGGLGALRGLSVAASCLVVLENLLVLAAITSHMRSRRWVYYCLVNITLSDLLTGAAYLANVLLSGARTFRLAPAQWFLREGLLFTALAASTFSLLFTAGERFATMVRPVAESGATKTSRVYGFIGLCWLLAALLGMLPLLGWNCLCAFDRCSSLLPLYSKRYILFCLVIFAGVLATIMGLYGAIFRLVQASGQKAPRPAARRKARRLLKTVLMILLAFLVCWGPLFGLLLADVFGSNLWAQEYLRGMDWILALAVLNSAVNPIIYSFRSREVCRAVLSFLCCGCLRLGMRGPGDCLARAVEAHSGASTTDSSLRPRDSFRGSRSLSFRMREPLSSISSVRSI

[24] = reduction of Shn3 3'UTR-driven luciferase in osteoblasts – cell-based, Clone20 osteoblasts, firefly luciferase, cherry-picked, dose response (AID 624132); format: functional;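 also: firefly luciferase luminescence from reporter carrying the Shn3 3'UTR in osteoblasts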
[25] = target: Beta-2 adrenergic receptor (Homo sapiens, UniProt P07550); assay: ADRB2 activation measured by internalization – cell-based, FAP fluorogen, flow cytometry, cherry pick 1, dose response (AID 588763); format: functional
Chain of Beta-2 adrenergic receptor (P07550 whole entry): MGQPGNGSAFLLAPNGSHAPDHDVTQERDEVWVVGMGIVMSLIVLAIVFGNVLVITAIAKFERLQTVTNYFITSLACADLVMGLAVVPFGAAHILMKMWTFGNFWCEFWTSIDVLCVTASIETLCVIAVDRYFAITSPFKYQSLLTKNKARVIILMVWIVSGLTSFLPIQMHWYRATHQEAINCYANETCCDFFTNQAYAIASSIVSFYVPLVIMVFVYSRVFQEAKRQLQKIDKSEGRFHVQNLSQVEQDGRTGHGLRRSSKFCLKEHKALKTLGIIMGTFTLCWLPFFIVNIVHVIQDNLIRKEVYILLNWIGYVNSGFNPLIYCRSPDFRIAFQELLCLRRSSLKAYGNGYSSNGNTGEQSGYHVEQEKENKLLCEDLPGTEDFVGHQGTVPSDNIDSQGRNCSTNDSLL

[26] = target: T6, Replicative DNA helicase DnaB (Mycobacterium tuberculosis, UniProt P9WMR3); assay: DnaB intein splicing inhibitors, dose response, biochemical, cell-free fluorescence (AID 449749); format: functional
T6 sequence (P9WMR3 whole entry): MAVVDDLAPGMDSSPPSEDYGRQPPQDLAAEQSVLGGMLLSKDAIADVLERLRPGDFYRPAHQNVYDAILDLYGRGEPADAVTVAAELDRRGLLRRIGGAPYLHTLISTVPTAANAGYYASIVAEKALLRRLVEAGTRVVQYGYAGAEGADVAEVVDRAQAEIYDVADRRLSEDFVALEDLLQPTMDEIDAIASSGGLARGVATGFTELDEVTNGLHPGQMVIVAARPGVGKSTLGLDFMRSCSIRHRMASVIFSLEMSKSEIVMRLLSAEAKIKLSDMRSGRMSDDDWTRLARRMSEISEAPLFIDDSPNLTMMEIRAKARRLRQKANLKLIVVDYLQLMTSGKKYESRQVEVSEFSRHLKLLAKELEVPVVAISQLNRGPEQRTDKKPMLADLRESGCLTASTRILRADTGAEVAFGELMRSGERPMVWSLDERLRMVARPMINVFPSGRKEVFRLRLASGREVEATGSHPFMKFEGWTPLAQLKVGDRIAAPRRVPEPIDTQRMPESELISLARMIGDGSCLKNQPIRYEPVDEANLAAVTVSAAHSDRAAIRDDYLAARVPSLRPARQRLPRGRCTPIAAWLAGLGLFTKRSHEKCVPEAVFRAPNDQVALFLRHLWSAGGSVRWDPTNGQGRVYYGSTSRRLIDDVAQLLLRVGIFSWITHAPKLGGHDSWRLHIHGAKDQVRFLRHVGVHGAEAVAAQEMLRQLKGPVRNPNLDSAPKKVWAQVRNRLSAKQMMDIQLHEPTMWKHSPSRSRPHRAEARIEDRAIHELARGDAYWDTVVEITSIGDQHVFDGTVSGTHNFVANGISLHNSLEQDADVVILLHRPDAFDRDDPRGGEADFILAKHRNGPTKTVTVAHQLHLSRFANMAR

Chain of ADP-ribosylation factor GTPase-activating protein 1 (Q62848 whole entry, the tested form may be a part): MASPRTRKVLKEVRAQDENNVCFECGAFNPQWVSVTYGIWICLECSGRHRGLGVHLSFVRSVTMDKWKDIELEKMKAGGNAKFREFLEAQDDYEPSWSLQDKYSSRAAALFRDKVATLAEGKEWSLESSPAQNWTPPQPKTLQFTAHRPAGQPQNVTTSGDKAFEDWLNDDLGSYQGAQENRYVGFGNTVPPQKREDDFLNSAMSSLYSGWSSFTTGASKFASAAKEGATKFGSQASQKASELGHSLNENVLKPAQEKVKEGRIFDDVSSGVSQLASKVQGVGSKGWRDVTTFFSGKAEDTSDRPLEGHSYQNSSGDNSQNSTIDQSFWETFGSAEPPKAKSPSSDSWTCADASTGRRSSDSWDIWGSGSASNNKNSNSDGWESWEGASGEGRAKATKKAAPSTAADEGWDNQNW

## COc1ccc(CCn2c(SCC(=O)Nc3cc(C)on3)nc3ccsc3c2=O)cc1OC
[1]
  IC50: 44 µM (inactive)
[2]
  EC50: 12.8 µM (active)

## CCN(CCO)c1ccc(N=Nc2cc(C)[nH]n2)cc1
[3]
  IC50: 61.2 µM (active)
[4]
  IC50: > 100 µM (inactive)
[5]
  AC50: 3.6 µM (active)
[6]
  EC50: > 100 µM (active)
[7]
  EC50: 4.08 µM (active)
[8]
  IC50: 53 µM (active)
[9]
  EC50: 4.94 µM (active)
[10]
  EC50: 5.43 µM (active)

## COc1ccc(C(c2c(O)ccc3ccccc23)N2CCOCC2)c(OC)c1 (stereo unspecified)
[11]
  EC50: 3.89 µM (active)
[12]
  CC50: 44.3 µM (not active)
[13]
  EC50: 12.5 µM (active)
[14]
  EC50: > 180 µM (inactive)
[15]
  EC50: 4.07 µM (active)
[16]
  EC50: > 160 µM (inactive)
[17]
  EC50: 1.82 µM (active)
[18]
  IC50: 1.62 µM (active)
[19]
  EC50: 11.6 µM (active)

## CC(C)c1nnc(NC(=O)CCS(=O)(=O)c2nc(-c3cccs3)cc(C(F)(F)F)n2)s1
[20]
  IC50: 13.5 µM (not active)
[21]
  AC50: 6.01 µM (active)
[22]
  EC50: 30.4 µM (inconclusive)
[23]
  IC50: 1.1 µM (active)
[24]
  AC50: 3.02 µM (active)
[25]
  EC50: 33.7 µM (inactive)
[26]
  AC50: > 120 µM (inactive)
